Experimental data published in patent US20140079836A1, “METHODS AND COMPOSITIONS FOR ALTERING HEALTH, WELLBEING, AND LIFESPAN” (LifeSpan Extension, LLC, priority 2008, published 2014).

Columns and labels:
[1] = tested on: TERT, TPP1, TERF1, TERF2, TINF2, POT1; assay: qPCR primer assays of telomere complex genes in skin fibroblasts AG07999; format: cell-based, human; details: 24 hours; 1 uM idebenone, 0.001% coffee cherry; FIG. 7
Procedure: Cell cultures: A human skin fibroblast cell culture was obtained through the Coriell Cell Repository from the National Institute on Aging Cell Repository. The culture, AG07999, was established from a biopsy of a person. Culture media: Cells were grown in Minimal Essential Medium supplemented with 10% fetal bovine serum, 2 mM L-glutamine, 2 mM Glutamax I. […] All cultures were incubated at 37° C. with 5% CO2 in a humidified chamber. Seeding of cells: […] Experimental phase: […] On Day 5 after 24 hours of exposure to test conditions, the cells were isolated and the RNA isolated using the RT^2q PCR-grade RNA isolation kit (Superarray Bioscience Corporation). […] The RNA was quantified and examined for purity using the 260/280 nm read method in a μQuant spectrophotometer before use in the array. Performance of the qPCR Primer Assays: […] The assay was performed in compliance with manufacturer's guidelines and by recommended manufacturer's protocol as can be found on the World Wide Web at superarray.com/Manual/realtimePCR.pdf. […] Any values out of range of the threshold cycles or inconsistent within the assay were discarded from analysis. qPCR Primer Assay results: The results from assays were determined using the delta CT method, which uses comparisons of control genes and threshold cycles of genes of interest to generate relative expression values (this process is handled by the GeneX package).

[2] = tested on: telomerase; assay: Quantitative telomerase detection (telomeric repeat formation + PCR) in skin fibroblasts (donor four AG7308, donor one AG14271) with or without UVB; format: cell-based, human
Procedure: Culture media: Cells were grown in Minimal Essential Medium supplemented with 10% fetal bovine serum, 2 mM L-glutamine, 2 mM Glutamax I, and 1× MEM non-essential amino acids solution. Cells were washed in the same medium, but without the fetal bovine serum. […] All cultures were incubated at 37° C. with 5% CO2 in a humidified chamber. Seeding of cells: […] Three wells were seeded per test condition or control. Experimental phase: On Day 3, wells were washed 1× with 2 mls medium, fed back 2 mls medium without fetal bovine serum and preincubated for 30-60 minutes before challenge with test or control conditions. […] The green tea polyphenols used were Premier Green Tea Extract Lot #10783, obtained from Pharma Cosmetix Research, LLC (Richmond, Va.). The Green Tea extract was measured into a stock solution of the above described Minimal Essential Media+1% Fetal Bovine Serum in a w/v ratio and then serially diluted into the testing concentrations with MEM+1% Fetal Bovine Serum. Three conditions were tested: […] UVB exposed and unexposed cells without test condition were used as controls. […] Cells from each test and control parameter were then trypsinized, collected by centrifugation, washed 3 times in PBS, and a cell count made using a hemacytometer. The final pellet was stored at −80° C. until processed further. UVB exposure: […] Cells were exposed from the bottom of the culture dish. The UVB dose delivered to the cells was adjusted for interference from the plastic in the culture dish. […] Extract from the cell pellets stored at −80 C post experimental phase was prepared for PCR according to the instructions in the Allied Biotech, Inc, Quantitative Telomerase Detection Kit. Briefly, pellets were thawed and immediately resuspended in 200 ul 1× Lysis Buffer per […]. The suspension was incubated on ice for 30 minutes, then microcentrifuged at 12,000×g for 30 minutes at 4° C. The supernatant was aliquoted and stored at −80° C. Detection of Telomerase: The extract from the cells allows for determination of telomerase activity by coupling the extract's ability to form telomeric repeats onto an oligonucleotide substrate and the resultant extended product are amplified using Polymerase Chain Reaction. These products are then visualized with SYBR green a fluorescent detection agent that emits green fluorescence when bound to the double stranded DNA product. […] The samples were run in a BioRad iCycler for 20 minutes at 25° C. to complete the telomerase reaction. The PCR initial activation step followed immediately and was of 10 minute duration at […]. […] The SYBR green detection occurred during the extension phase. Telomerase Detection Results: […] The raw analysis is provided in DATA TABLE 1. […] Culture media: Cells were grown in Minimal Essential Medium supplemented with 10% fetal bovine serum, 2 mM L-glutamine, 2 mM Glutamax I, and 1×MEM non-essential amino acids solution. Cells were washed in the same medium, but without the fetal bovine serum. […] All cultures were incubated at 37° C. with 5% CO2 in a humidified chamber. Seeding of cells: […] Three wells were seeded per test condition or control. Experimental phase: On Day 3, wells were washed 1× with 2 mls medium, fed back 2 mls medium without fetal bovine serum and preincubated for 30-60 minutes before challenge with test or control conditions. […] The 1% stock solution was also diluted with MEM+1% FBS until the testing concentrations were reached. Three conditions were tested: […] UVB exposed and unexposed cells without test condition were used as controls. […] Cells from each test and control parameter were then trypsinized, collected by centrifugation, washed 3 times in PBS, and a cell count made using a hemacytometer. The final pellet was stored at −80° C. until processed further. UVB exposure: […] Cells were exposed from the bottom of the culture dish. The UVB dose delivered to the cells was adjusted for interference from the plastic in the culture dish. […]

COC1=C(OC)C(=O)C(CCCCCCCCCCO)=C(C)C1=O [Idebenone, 6-(10-hydroxydecyl)-2,3-dimethoxy-5-methyl-1,4-benzoquin-one] was tested, and the TERF1 expression level [1] was “effected”, the TERF2 expression level [1] was “effected” and the Level of telomerase ([2]; donor four UVB + agent 4 hr, compared to UVB Tx Control) was −1.07. The Level of telomerase ([2]; donor four UVB + agent 4 hr, compared to UnTx Control) was 90.51, the Level of telomerase ([2]; donor four UVB + agent Continuous, compared to UVB Tx Control) was −1.00 and the Level of telomerase ([2]; donor four UVB + agent Continuous, compared to UnTx Control) was 97.01. For the same compound, the “less telomerase activity than untreated cells” value ([2]; donor four cells given Idebenone) was “roughly 53%”, the telomerase activity ([2]; donor four cells given Idebenone and 1 MED UVB vs UVB stressed cells alone) was −1.7 fold and the telomerase activity ([2]; donor four cells given Idebenone and 1 MED UVB vs untreated cells) was −2.4 fold. For the same compound, the Level of telomerase ([2]; donor four idebenone Vs. person idebenone 4 hr) was 1.46, the telomerase activity ([2]; donor one cells given Idebenone and 1 MED UVB vs UVB treated age matched controls) was −2.65 fold and the telomerase activity ([2]; donor one cells given Idebenone and 1 MED UVB vs untreated controls) was “roughly −2.61 fold”. For the same compound, the “telomerase activity (summary in words)” value ([2]; stressed (UVB) and unstressed cells) was “decreased level of telomerase activity”.
